Reference: patent US20220347256A1, “COMPOSITION FOR PROMOTING HAIR GROWTH, AND ALLEVIATING AND TREATING HAIR LOSS INCLUDING SUBSTANCE P” (Biosolution Co., Ltd., priority 2019, published 2022)
Where no end group is shown, it is not given here.

Tests used:
[1] = tested on: C3H/HeN mice; assay: H&E histology, thickness and shape of skin in C3H mice with dexamethasone-induced regression phase; assay type: in vivo; details: in combination with dexamethasone
Protocol: More specifically, after the procedure of Example 7, the skin tissue of the mice was collected in the direction of the hair follicles and fixed in a fixing solution (4% formaldehyde, Sigma, USA) for 24 hours. […] Thereafter, an infiltration process was carried out to fill the penetrant into the tissue, followed by an embedding process to make a paraffin block. For hematoxylin (Sigma, USA) and eosin (Sigma, USA) staining, the paraffin block was cut into 8 μm and attached to slides (microscope slides, Marienfeld, Germany) coated with 2% 3-aminosilane, followed by drying in a 37° C. slide warmer for 12 hours. Thereafter, the slides were immersed in xylene four times for 7 minutes each through a deparaffinization process, and subjected to hydration for staining, and then washed with water. […] One-way ANOVA was carried out to examine the difference between the entire groups, and the difference between individual means was analyzed using Tukey's test. […] This statistic was analyzed based on Prism software version 5.
Additionally, the thickness of the dermis and the subcutaneous layers was confirmed by the Image J program. Skin thickness was measured by dividing the skin into the dermal layer (D), subcutaneous layer (SC), and whole layer (W), and 30 different areas were measured for each group and the results are shown in the graph of FIG. 13.

[2] = tested on: C3H/HeN mice; assay: Number of hair follicles in skin of C3H mice with dexamethasone-induced regression phase; assay type: in vivo; details: in combination with dexamethasone
Protocol: More specifically, after the procedure of Example 7, the skin tissue of the mice was collected in the direction vertical to the hair follicles and fixed in a fixing solution (4% formaldehyde, Sigma, USA) for 24 hours. The hematoxylin and eosin staining was carried out in the same manner as in Example 8.
Additionally, the number of hair follicles in 1 mm of skin was measured for each group by the Image J program. The number of hair follicles were measured in 10 tissues per group by dividing the skin into D, SC, and W layers, and the results are shown in the graph of FIG. 15.

[3] = tested on: C3H/HeN mice; assay: Maintenance of skin in growth phase in C3H mice with dexamethasone-induced regression phase (black skin area); assay type: in vivo
Protocol: More specifically, ketamine (Yuhan Co, Ltd, Korea) and rompun (Bayer Korea, Korea) were mixed to a final concentration of 24.2 mg/mL and 1.8 mg/mL, respectively, and then six-week-old female C3H/HeN mice (Orient Bio, Korea) were anesthetized with 80 μL of the anesthetic solution. After anesthesia, the hair on the back was removed using a clipper, and the remaining hair was completely removed using a hair removal cream. Then, twelve mice with clean skin without wounds or remaining hair at the hair removal site were selected. Three mice were placed in each group so that mice with similar hair cycle were placed in each group, and thereafter the experiment was carried out. The phosphate buffered saline or the composition including the substance P at 50% concentration was intradermally injected in an amount of 50 μL each for a total of 200 μL at four sites on the back of the mice, at intervals of 3 to 4 days for 7 days from 6 days after the hair removal using an insulin syringe. […] One-way ANOVA was carried out to examine the difference between the entire groups, and the difference between individual means was analyzed using Tukey's test. […] This statistic was analyzed based on Prism software version 5. […]

[4] = tested on: dermal papilla cells; assay: MTT assay of dermal papilla cell proliferation; assay type: cell-based; details: 24 hours, concentration groups 30% and 50%
Protocol: The effect of substance P on dermal papilla cell proliferation was analyzed by MTT assay.
More specifically, 1,000 μL of 0.5×10^5 CFU/mL dermal papilla cell suspension was added to a 12-well culture plate and incubated for 48 hours. The medium (alpha-Minimum Essential Medium, alpha-MEM+10% FBS) was removed, and then 900 μL of a fresh medium (alpha-Minimum Essential Medium, alpha-MEM +5% FBS) was dispensed into each well, and then 100 μL of the composition including substance P diluted with phosphate buffered saline (PBS) was inoculated at concentrations of 30% and 50% (the substance P was contained at a concentration of 6 mg/mL and 10 mg/mL in the composition with concentrations of 30% and 50%, respectively). Additionally, substance P (30% and 50%) at the same concentrations as the composition including substance P was respectively mixed with phosphate buffered saline and treated.
Meanwhile, 100 μL of phosphate buffered saline was used as a negative control group. After inoculation, cells were incubated at 37° C. for 24 hours, and then the medium was removed. Then, the cells were washed with phosphate buffered saline three times. […] Finally, the cells were washed with phosphate buffered saline and stirred in 150 μL of isopropyl alcohol solution for 3 hours, and absorbance at 570 nm was measured.

[5] = tested on: germinal matrix cells; assay: MTT assay of germinal matrix cell proliferation; assay type: cell-based; details: 24 hours, concentration groups 30% and 50%
Protocol: The effect of substance P on germinal matrix cell proliferation was analyzed by MTT assay.
More specifically, 1,000 μL of 0.5×10^5 CFU/mL germinal matrix cell suspension was added to a 12-well culture plate and incubated for 48 hours. The medium (alpha-Minimum Essential Medium, alpha-MEM+10% FBS+10 ng/ml bFGF) was removed, and then 900 μL of a fresh medium (alpha-Minimum Essential Medium, alpha-MEM+5% FBS+5 ng/ml bFGF) was dispensed into each well, and then 100 μL of the composition including substance P diluted with phosphate buffered saline (PBS) was inoculated at concentrations of 30% and 50%. Additionally, substance P (30% and 50%) at the same concentration as the composition including substance P was respectively mixed with phosphate buffered saline and treated. Meanwhile, 100 μL of phosphate buffered saline was used as a negative control group. After inoculation, cells were incubated at 37° C. for 24 hours, and then the medium was removed. Then, the cells were washed with the phosphate buffered saline three times. Subsequently, 900 μL of the medium was mixed with 100 μL of the MTT solution (0.5 mg/mL), and the mixed solution was treated to each well and allowed to react at 37° C. for 3 hours. Finally, the cells were washed with the phosphate buffered saline and stirred in 150 μL of isopropyl alcohol solution for 3 hours, and absorbance at 570 nm was measured.

| Compound | inhibition of the regression phase of the subcutaneous layer (SC) compared to phosphate buffered saline [1] [%] | number of hair follicles maintained in the dermis compared to phosphate buffered saline [2] | number of hair follicles maintained in the subcutaneous compared to phosphate buffered saline [2] | number of hair follicles maintained in the whole skin compared to phosphate buffered saline [2] | inhibition of the induction of the regression phase by dexamethasone ([3]; from black skin area) [%] | black-skinned back relative to the total skin ([3]; in combination with dexamethasone, 17 days after hair removal, Image J) [%] | cell proliferation of dermal papilla cells [4] [%] | cell proliferation of germinal matrix cells [5] [%] |
| --- | --- | --- | --- | --- | --- | --- | --- | --- |
| Nc1cc(N2CCCCC2)nc(N)[n+]1[O-] [minoxidil 2%, minoxidil] | 233 | about 1.4 times | about 56 times | about 3.7 times | 46 | 47 |  |  |
| Arg-Pro-Lys-Pro-Gln-Gln-Phe-Phe-Gly-Leu-Met-NH2 (RPKPQQFFGLM-NH2) [substance P, in phosphate buffered saline as comparison group] |  |  |  |  |  |  | 107 | ≤ 105 |
